US20060223996A1, “IL-12 modulatory compounds” (Synta Pharmaceuticals Corp., priority 2004, published 2006)

Tested on: IL-12
Assay: Human in vitro assay: inhibition of IL-12 production in IFNγ/LPS- or IFNγ/SAC-stimulated human PBMC or THP-1 cells (ELISA)
Assay type: cell-based
Settings: read-out: IC50 Range (representative in vitro IC50 data)
From the text: The biological activities of a heterocyclic compound can be evaluated by a number of cell-based assays. One of such assays can be conducted using cells from human peripheral blood mononuclear cells (PBMC) or human monocytic cell line (THP-1). The cells are stimulated with a combination of human interferon-γ (IFNγ) and lipopolysaccharide or a combination of IFNγ and Staphylococcus aureus Cowan I in the presence of a test compound. The level of inhibition of IL-12 production can be measured by determining the amount of p70 by using a sandwich ELISA assay with anti-human IL-12 antibodies. IC50 of the test compound can then be determined. Specifically, PBMC or THP-1 cells are incubated with the test compound. Cell viability was assessed using the bioreduction of MTS [3-(4,5-dimethylthiazol-2-yl)-5-(3-carboxymethoxyphenyl)-2-(4-sulfophenyl)-2H-tetrazolium](Promega, Madison, Wis.).
Human In Vitro Assay. Human PBMC were isolated by centrifugation using Ficoll-Paque (Pharmacia Biotech, Uppsala, Sweden) and prepared in RPMI medium supplemented with 10% fetal calf serum (FCS), 100 U/mL penicillin, and 100 μg/mL streptomycin. PBMC were plated in wells of a 96-well plate at a concentration of 5×10^5 cells/well, and primed by adding IFNγ (30 U/mL) for 22 h and stimulated by adding LPS (1 μg/mL), or by adding IFNγ (100 U/mL) and then stimulated by adding SAC (0.01%). A test pyrimidine compound was dissolved in DMSO, and added to wells of the 96-well plate. The final DMSO concentration was adjusted to 0.25% in all cultures, including the compound-free control. Human THP-1 cells were plated in wells, primed by adding IFNγ (100 U/mL) for 22 h and stimulated by adding SAC (0.025%) in the presence of different concentrations of the pyrimidine compound. Cell-free supernatants were taken 18 h later for measurement of cytokines. Cell viability was assessed using the bioreduction of MTS. Cell survival was estimated by determining the ratio of the absorbance in compound-treated groups versus compound-free control.
The supernatant was assayed for the amount of IL-12p40, IL-12p70, or IL-10 by using a sandwich ELISA with anti-human antibodies, i.e., a Human IL-12 p40 ELISA kit from R&D Systems (Berkeley, Calif.), and a Human IL-12 p70 or IL-10 ELISA kit from Endogen (Cambridge, Mass.). Assays were based on the manufacturer's instructions.
The biological activities of pyrimidine compounds were tested on human PBMC or THP-1 cells.

Row | IC50 [nM] | Compound
1 | ≥ 1000 | Cc1cccc(NC(=O)C(=O)Nc2cc(OCCc3ccccn3)nc(N3CCOCC3)n2)c1 [Compound 85, N-[2-Morpholin-4-yl-6-(2-pyridin-2-yl-ethoxy)-pyrimidin-4-yl]-N′-m-tolyl-oxalamide]
2 | ≥ 1000 | O=C(Nc1cccc(O)c1)C(=O)Nc1cc(OCCc2ccccn2)nc(N2CCOCC2)n1 [Compound 86, N-(3-Hydroxy-phenyl)-N′-[2-morpholin-4-yl-6-(2-pyridin-2-yl-ethoxy)-pyrimidin-4-yl]-oxalamide]
3 | ≥ 1000 | O=C(Nc1cccc(O)c1)C(=O)Nc1cc(N2CCOCC2)nc(OCCc2ccccn2)n1 [Compound 87, N-(3-Hydroxy-phenyl)-N′-[6-morpholin-4-yl-2-(2-pyridin-2-yl-ethoxy)-pyrimidin-4-yl]-oxalamide]
4 | < 1000 | Cc1[nH]c2ccc(NC(=O)c3cc(N4CCN(c5ccccn5)CC4)nc(N4CCOCC4)n3)cc2c1C [Compound 90, 2-Morpholin-4-yl-6-(4-pyridin-2-yl-piperazin-1-yl)-pyrimidine-4-carboxylic acid (2,3-dimethyl-1H-indol-5-yl)-amide]
5 | < 1000 | Cc1[nH]c2ccc(NC(=O)c3cc(N(CCO)CCO)nc(N4CCOCC4)n3)cc2c1C [Compound 91, 6-[Bis-(2-hydroxy-ethyl)-amino]-2-morpholin-4-yl-pyrimidine-4-carboxylic acid (2,3-dimethyl-1H-indol-5-yl)-amide]
6 | < 1000 | CCCCN(CCCC)c1cc(C(=O)Nc2ccc3[nH]c(C)c(C)c3c2)nc(N2CCOCC2)n1 [Compound 92, 6-Dibutylamino-2-morpholin-4-yl-pyrimidine-4-carboxylic acid (2,3-dimethyl-1H-indol-5-yl)-amide]
7 | < 1000 | CCN(CC)c1cc(C(=O)Nc2ccc3[nH]c(C)c(C)c3c2)nc(N2CCOCC2)n1 [Compound 93, 6-Diethylamino-2-morpholin-4-yl-pyrimidine-4-carboxylic acid (2,3-dimethyl-1H-indol-5-yl)-amide]
8 | < 1000 | Cc1[nH]c2ccc(NC(=O)c3cc(N4CCN(CCO)CC4)nc(N4CCOCC4)n3)cc2c1C [Compound 94, 6-[4-(2-Hydroxy-ethyl)-piperazin-1-yl]-2-morpholin-4-yl-pyrimidine-4-carboxylic acid (2,3-dimethyl-1H-indol-5-yl)-amide]
9 | < 1000 | Cc1[nH]c2ccc(NC(=O)c3cc(NCCN(C)C)nc(N4CCOCC4)n3)cc2c1C [Compound 95, 6-(2-Dimethylamino-ethylamino)-2-morpholin-4-yl-pyrimidine-4-carboxylic acid (2,3-dimethyl-1H-indol-5-yl)-amide]
10 | < 1000 | Cc1[nH]c2ccc(NC(=O)c3cc(NCC(=O)O)nc(N4CCOCC4)n3)cc2c1C [Compound 96, [6-(2,3-Dimethyl-1H-indol-5-ylcarbamoyl)-2-morpholin-4-yl-pyrimidin-4-ylamino]-acetic acid]
11 | < 1000 | COC(=O)CNc1cc(C(=O)Nc2ccc3[nH]c(C)c(C)c3c2)nc(N2CCOCC2)n1 [Compound 97, [6-(2,3-Dimethyl-1H-indol-5-ylcarbamoyl)-2-morpholin-4-yl-pyrimidin-4-ylamino]-acetic acid methyl ester]
12 | < 1000 | COCCNC(=O)CNc1cc(C(=O)Nc2ccc3[nH]c(C)c(C)c3c2)nc(N2CCOCC2)n1 [Compound 98, 6-{[(2-Methoxy-ethylcarbamoyl)-methyl]-amino}-2-morpholin-4-yl-pyrimidine-4-carboxylic acid (2,3-dimethyl-1H-indol-5-yl)-amide]
13 | < 1000 | Cc1[nH]c2ccc(NC(=O)c3cc(NCC(=O)N4CCC(C(N)=O)CC4)nc(N4CCOCC4)n3)cc2c1C [Compound 99, 6-[2-(4-Carbamoyl-piperidin-1-yl)-2-oxo-ethylamino]-2-morpholin-4-yl-pyrimidine-4-carboxylic acid (2,3-dimethyl-1H-indol-5-yl)-amide]
14 | < 1000 | Cc1[nH]c2ccc(NC(=O)c3cc(NCC(=O)N4CCC(O)CC4)nc(N4CCOCC4)n3)cc2c1C [Compound 100, 6-[2-(4-Hydroxy-piperidin-1-yl)-2-oxo-ethylamino]-2-morpholin-4-yl-pyrimidine-4-carboxylic acid (2,3-dimethyl-1H-indol-5-yl)-amide]
15 | < 1000 | Cc1[nH]c2ccc(NC(=O)c3cc(NCC(=O)N(C)CCO)nc(N4CCOCC4)n3)cc2c1C [Compound 101, 6-({[(2-Hydroxy-ethyl)-methyl-carbamoyl]-methyl}-amino)-2-morpholin-4-yl-pyrimidine-4-carboxylic acid (2,3-dimethyl-1H-indol-5-yl)-amide]
16 | < 1000 | CC(=O)N1CCN(C(=O)CNc2cc(C(=O)Nc3ccc4[nH]c(C)c(C)c4c3)nc(N3CCOCC3)n2)CC1 [Compound 102, 6-[2-(4-Acetyl-piperazin-1-yl)-2-oxo-ethylamino]-2-morpholin-4-yl-pyrimidine-4-carboxylic acid (2,3-dimethyl-1H-indol-5-yl)-amide]
17 | < 1000 | Cc1[nH]c2ccc(NC(=O)c3cc(NCC(=O)N4CCc5ccccc5C4)nc(N4CCOCC4)n3)cc2c1C [Compound 103, 6-[2-(3,4-Dihydro-1H-isoquinolin-2-yl)-2-oxo-ethylamino]-2-morpholin-4-yl-pyrimidine-4-carboxylic acid (2,3-dimethyl-1H-indol-5-yl)-amide]
18 | < 1000 | Cc1[nH]c2ccc(NC(=O)c3cc(NCC(N)=O)nc(N4CCOCC4)n3)cc2c1C [Compound 104, 6-(Carbamoylmethyl-amino)-2-morpholin-4-yl-pyrimidine-4-carboxylic acid (2,3-dimethyl-1H-indol-5-yl)-amide]
19 | < 1000 | CCNC(=O)CNc1cc(C(=O)Nc2ccc3[nH]c(C)c(C)c3c2)nc(N2CCOCC2)n1 [Compound 105, 6-(Ethylcarbamoylmethyl-amino)-2-morpholin-4-yl-pyrimidine-4-carboxylic acid (2,3-dimethyl-1H-indol-5-yl)-amide]
20 | < 1000 | Cc1[nH]c2ccc(NC(=O)c3cc(NCC(=O)N4CCN(C)CC4)nc(N4CCOCC4)n3)cc2c1C [Compound 106, 6-[2-(4-Methyl-piperazin-1-yl)-2-oxo-ethylamino]-2-morpholin-4-yl-pyrimidine-4-carboxylic acid (2,3-dimethyl-1H-indol-5-yl)-amide]
21 | < 1000 | CCCCN(C)C(=O)CNc1cc(C(=O)Nc2ccc3[nH]c(C)c(C)c3c2)nc(N2CCOCC2)n1 [Compound 107, 6-{[(Butyl-methyl-carbamoyl)-methyl]-amino}-2-morpholin-4-yl-pyrimidine-4-carboxylic acid (2,3-dimethyl-1H-indol-5-yl)-amide]
22 | < 1000 | Cc1[nH]c2ccc(NC(=O)c3cc(NCC(=O)N4CCCC4)nc(N4CCOCC4)n3)cc2c1C [Compound 108, 2-Morpholin-4-yl-6-(2-oxo-2-pyrrolidin-1-yl-ethylamino)-pyrimidine-4-carboxylic acid (2,3-dimethyl-1H-indol-5-yl)-amide]
23 | < 1000 | Cc1[nH]c2ccc(NC(=O)c3cc(NCC(=O)N4CCCCC4)nc(N4CCOCC4)n3)cc2c1C [Compound 109, 2-Morpholin-4-yl-6-(2-oxo-2-piperidin-1-yl-ethylamino)-pyrimidine-4-carboxylic acid (2,3-dimethyl-1H-indol-5-yl)-amide]
24 | < 1000 | Cc1[nH]c2ccc(NC(=O)c3cc(NCC(=O)NC4CCCC4)nc(N4CCOCC4)n3)cc2c1C [Compound 110, 6-(Cyclopentylcarbamoylmethyl-amino)-2-morpholin-4-yl-pyrimidine-4-carboxylic acid (2,3-dimethyl-1H-indol-5-yl)-amide]
25 | < 1000 | Cc1cccc(NC(=O)CNc2cc(C(=O)Nc3ccc4[nH]c(C)c(C)c4c3)nc(N3CCOCC3)n2)c1 [Compound 111, 2-Morpholin-4-yl-6-[(m-tolylcarbamoyl-methyl)-amino]-pyrimidine-4-carboxylic acid (2,3-dimethyl-1H-indol-5-yl)-amide]

Row | Compound | IC50 [nM]
26 | Cc1[nH]c2ccc(NCc3cc(OCCc4ccccn4)nc(N4CCOCC4)n3)cc2c1C [Compound 84, (2,3-Dimethyl-1H-indol-5-yl)-[2-morpholin-4-yl-6-(2-pyridin-2-yl-ethoxy)-pyrimidin-4-ylmethyl]-amine] | < 1000
27 | Cc1cccc(OC(=O)Nc2cc(N3CCOCC3)nc(OCCc3ccccn3)n2)c1 [Compound 88, [6-Morpholin-4-yl-2-(2-pyridin-2-yl-ethoxy)-pyrimidin-4-yl]-carbamic acid m-tolyl ester] | ≥ 1000
28 | Cc1[nH]c2ccc(NC(=O)c3cc(NCC(=O)N4CCOCC4)nc(N4CCOCC4)n3)cc2c1C [Compound 89, 2-Morpholin-4-yl-6-(2-morpholin-4-yl-2-oxo-ethylamino)-pyrimidine-4-carboxylic acid (2,3-dimethyl-1H-indol-5-yl)-amide] | < 1000
